In US11845752B2, “Substituted imidazo[1,5-a]pyrazines for the treatment of hepatitis B” (ALIGOS THERAPEUTICS, INC., priority 2020, dated 2023) one finds EC50 data, which are given here for 26 compounds.

Each structure is given as a SMILES string. pEC50: −log10 of the molar value. Where two headings read alike, the source gives them in different places.

This test has as its system HBV. Briefly: HBV-DNA antiviral assay using HepG2.117 cells (intracellular HBV DNA by qPCR). It is filed as cell-based, HBV genotype D. The settings on record: HBV DNA inhibition, 3 days incubation, read-out: EC50. In a few lines:
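HepG2.117 cells (stably integrated genotype D HBV, Tet-off) seeded without doxycycline to induce pgRNA, then treated next day with 9 concentrations (4-fold dilutions, 2% DMSO) for 3 days at 37 °C. Intracellular HBV DNA quantified by qPCR against standard curve, viability by ATP content; inhibition relative to DMSO control, EC50/EC90/CC50 by non-linear regression.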
(In general: In qPCR the cycle at which signal appears reflects the starting amount.)

Setting [1] is: Hepatitis B virus, HepG2.117, 72 h.

Consider `CC1Cn2c(c(C(=O)NCc3c(F)cccc3-c3nccc(N)n3)n(-c3ccc(OC4CC4)cc3)c2=O)CN1C(=O)c1ccc(Br)c(C(F)(F)F)c1` (single isomer, unassigned) [Compound 32b], for which the pEC50 was more than 7.30. Consider `Cc1nnc(-c2cccc(F)c2CNC(=O)c2c3n(c(=O)n2-c2ccc(OC4CC4)cc2)CC(C)N(C(=O)c2ccc(Br)c(C(F)(F)F)c2)C3)o1` (single isomer, unassigned) [Compound 33b], for which the pEC50 is more than 7.30. The same measure, in the same setting: the value for `COc1cnn(-c2ccccc2CNC(=O)c2c3n(c(=O)n2-c2ccc(OC4CC4)cc2)CC(C)N(C(=O)c2ccc(Br)c(Cl)c2)C3)c1` (single isomer, unassigned) [Compound 17b, 7-(4-bromo-3-chloro-benzoyl)-2-[4-(cyclopropoxy)phenyl]-N-[[2-(4-methoxypyrazol-1-yl)phenyl]methyl]-6-methyl-3-oxo-6,8-dihydro-5H-imidazo[1,5-a]pyrazine-1-carboxamide] was more than 7.30. On the same count and under the same terms, the same measure for `CC1Cn2c(c(C(=O)NCc3ccccc3-c3nccc(C(F)(F)F)n3)n(-c3ccc(N4CC5(CN(C)C5)C4)cc3)c2=O)CN1C(=O)c1ccc(Br)c(C(F)(F)F)c1` (single isomer, unassigned) [Compound 98b]: 5.30 to 6.30.

`CC1Cn2c(c(C(=O)NCc3c(F)cccc3-c3ccncn3)n(-c3ccc(OC4CC4)cc3)c2=O)CN1C(=O)c1ccc(Br)c(Cl)c1` (single isomer, unassigned) [Compound 2a, (S*)-7-(4-bromo-3-chlorobenzoyl)-2-(4-cyclopropoxyphenyl)-N-(2-fluoro-6-(pyrimidin-4-yl)benzyl)-6-methyl-3-oxo-2,3,5,6,7,8-hexahydroimidazo[1,5-a]pyrazine-1-carboxamide]: the pEC50 under setting [1] is 6.30 to 7.30. Regarding `CC1Cn2c(c(C(=O)NCc3c(F)cccc3-c3nccc(N)n3)n(-c3ccc(OC4CC4)cc3)c2=O)CN1C(=O)c1ccc(Br)c(Cl)c1` (single isomer, unassigned) [Compound 31b], the pEC50 was more than 7.30. `CC1Cn2c(c(C(=O)NCc3ccccc3-c3ncccn3)n(-c3ccc(OC4CC4)cc3)c2=O)CN1C(=O)c1ccc(Br)c(Cl)c1` (single isomer, unassigned) [Compound 3a, (6S*)-7-(4-bromo-3-chloro-benzoyl)-2-[4-(cyclopropoxy)phenyl]-6-methyl-3-oxo-N-[(2-pyrimidin-2-ylphenyl)methyl]-6,8-dihydro-5H-imidazo[1,5-a]pyrazine-1-carboxamide]: under setting [1], the pEC50 is more than 7.30. On the same count and under the same terms, the value for `CC1Cn2c(c(C(=O)NCc3ccccc3-c3cccnn3)n(-c3ccc(N4CC5(CN(C)C5)C4)cc3)c2=O)CN1C(=O)c1ccc(Br)c(C(F)(F)F)c1` (single isomer, unassigned) [Compound 76a] was 5.30 to 6.30; that for `C[C@H]1Cn2c(c(C(=O)NCc3ccccc3-c3cccnn3)n(-c3ccc(OC[C@H](O)C(F)(F)F)cc3)c2=O)CN1C(=O)c1ccc(Br)c(C(F)(F)F)c1` (mixture of isomers) [Compound 67b, (6SR)-7-[4-bromo-3-(trifluoromethyl)benzoyl]-6-methyl-3-oxo-N-[(2-pyridazin-3-ylphenyl)methyl]-2-[4-[(2S)-3,3,3-trifluoro-2-hydroxy-propoxy]phenyl]-6,8-dihydro-5H-imidazo[1,5-a]pyrazine-1-carboxamide] was more than 7.30.

For the compound `CC1Cn2c(c(C(=O)NCc3c(F)cccc3-c3cccnn3)n(-c3ccc(OC4CC4)cc3)c2=O)CN1C(=O)c1ccc(Br)c(Cl)c1` (single isomer, unassigned) [Compound 49b], the pEC50 is 6.30 to 7.30. With `COc1nccc(-c2ccccc2CNC(=O)c2c3n(c(=O)n2-c2ccc(OC4CC4)cc2)CC(C)N(C(=O)c2ccc(Br)c(C(F)(F)F)c2)C3)n1` (single isomer, unassigned) [Compound 38a], under setting [1], the pEC50 is more than 7.30.

Regarding `C[C@@H]1Cn2c(c(C(=O)NCc3ccccc3-c3cccnn3)n(-c3ccc(OC[C@@H](O)C(F)(F)F)cc3)c2=O)CN1C(=O)c1ccc(Br)c(C(F)(F)F)c1` (mixture of isomers) [Compound 66a, (6RS)-7-[4-bromo-3-(trifluoromethyl)benzoyl]-6-methyl-3-oxo-N-[(2-pyridazin-3-ylphenyl)methyl]-2-[4-[(2R)-3,3,3-trifluoro-2-hydroxy-propoxy]phenyl]-6,8-dihydro-5H-imidazo[1,5-a]pyrazine-1-carboxamide], the pEC50 under setting [1] was 6.30 to 7.30. The same measure, in the same setting: the same measure for `C[C@H]1Cn2c(c(C(=O)NCc3ccccc3-c3ccncn3)n(-c3ccc(OC[C@@H](O)C(F)(F)F)cc3)c2=O)CN1C(=O)c1ccc(Br)c(C(F)(F)F)c1` (stereo in doubt) [Compound 62b]: 6.30 to 7.30. Turning to `C[C@H]1Cn2c(c(C(=O)NCc3ccccc3-c3ncccn3)n(-c3ccc(OC[C@H](O)C(F)(F)F)cc3)c2=O)CN1C(=O)c1ccc(Br)c(C(F)(F)F)c1` (mixture of isomers) [Compound 75b, (6SR)-7-[4-bromo-3-(trifluoromethyl)benzoyl]-6-methyl-3-oxo-N-[(2-pyrimidin-2-ylphenyl)methyl]-2-[4-[(2S)-3,3,3-trifluoro-2-hydroxy-propoxy]phenyl]-6,8-dihydro-5H-imidazo[1,5-a]pyrazine-1-carboxamide], the pEC50 under setting [1] was 6.30 to 7.30. The same measure, in the same setting: the value for `C[C@H]1Cn2c(c(C(=O)NCc3ccccc3-c3ccncn3)n(-c3ccc4c(cnn4CC(F)(F)F)c3)c2=O)CN1C(=O)c1ccc(Br)c(C(F)(F)F)c1` (stereo in doubt) [Compound 72b, rac-(6S)-7-[4-bromo-3-(trifluoromethyl)benzoyl]-6-methyl-3-oxo-N-[(2-pyrimidin-4-ylphenyl)methyl]-2-[1-(2,2,2-trifluoroethyl)indazol-5-yl]-6,8-dihydro-SH-imidazo[1,5-a]pyrazine-1-carboxamide] was 6.30 to 7.30. Take `CC1Cn2c(c(C(=O)NCc3ccccc3-c3cccnn3)n(-c3ccc(OC4CC4)cc3)c2=O)CN1C(=O)c1ccc(Br)c(Cl)c1` (single isomer, unassigned) [Compound 7b, 7-(4-bromo-3-chloro-benzoyl)-2-[4-(cyclopropoxy)phenyl]-6-methyl-3-oxo-N-[(2-pyridazin-3-ylphenyl)methyl]-6,8-dihydro-5H-imidazo[1,5-a]pyrazine-1-carboxamide]: the negative logarithm of the EC50 (pEC50) was more than 7.30.

Consider `CC1Cn2c(c(C(=O)NCc3ccccc3-c3ccncn3)n(-c3ccc(N4CCC5(CC4)CN(C)C5)cc3)c2=O)CN1C(=O)c1ccc(Br)c(C(F)(F)F)c1` (single isomer, unassigned) [Compound 80b], for which the negative-log EC50 (pEC50) was 6.30 to 7.30. Same read-out and setting: the same measure for `CC1Cn2c(c(C(=O)NCc3ccccc3-c3ccncn3)n(-c3ccc4nn(CC(F)(F)F)cc4c3)c2=O)CN1C(=O)c1ccc(Br)c(C(F)(F)F)c1` (single isomer, unassigned) [Compound 79b]: more than 7.30. On to `CC1Cn2c(c(C(=O)NCc3c(F)cccc3-c3nccc(N)n3)n(-c3ccc(OC4CC4)cc3)c2=O)CN1C(=O)c1ccc(Br)c(C(F)(F)F)c1` (single isomer, unassigned) [Compound 32a], for which the pEC50 under setting [1] was more than 7.30.

Take `CC1Cn2c(c(C(=O)NCc3ccccc3-c3ccncn3)n(-c3ccc4oc(N)nc4c3)c2=O)CN1C(=O)c1ccc(Br)c(Cl)c1` (single isomer, unassigned) [Compound 92b]: the pEC50 is 5.30 to 6.30.

`C[C@@H](O)COc1ccc(-n2c(C(=O)NCc3ccccc3-c3ncccn3)c3n(c2=O)C[C@H](C)N(C(=O)c2ccc(Br)c(C(F)(F)F)c2)C3)cc1` (mixture of isomers) [Compound 64b, (6SR)-7-[4-bromo-3-(trifluoromethyl)benzoyl]-2-[4-[(2R)-2-hydroxypropoxy]phenyl]-6-methyl-3-oxo-N-[(2-pyrimidin-2-ylphenyl)methyl]-6,8-dihydro-5H-imidazo[1,5-a]pyrazine-1-carboxamide]: the pEC50 under setting [1] was 6.30 to 7.30. For the compound `CC1Cn2c(c(C(=O)NCc3ccccc3-c3ncccn3)n(-c3ccc(OC[C@@H](O)C(F)(F)F)cc3)c2=O)CN1C(=O)c1ccc(Br)c(C(F)(F)F)c1` (stereo in doubt) [Compound 71b, (6S*)-7-[4-bromo-3-(trifluoromethyl)benzoyl]-6-methyl-3-oxo-N-{[2-(pyrimidin-2-yl)phenyl]methyl}-2-{4-[(2R)-3,3,3-trifluoro-2-hydroxypropoxy]phenyl}-5H,6H,8H-imidazo[1,5-a]pyrazine-1-carboxamide], the pEC50 is 6.30 to 7.30. Same read-out and setting: the same measure for `CC1Cn2c(c(C(=O)NCc3ccccc3-n3ccc(C(F)(F)F)n3)n(-c3ccc(N4CC5(CN(C)C5)C4)cc3)c2=O)CN1C(=O)c1ccc(Br)c(C(F)(F)F)c1` (single isomer, unassigned) [Compound 110b]: 6.30 to 7.30. Regarding `C[C@H]1Cn2c(c(C(=O)NCc3ccccc3-c3cccnn3)n(-c3ccc(OC[C@@H](O)C(F)(F)F)cc3)c2=O)CN1C(=O)c1ccc(Br)c(C(F)(F)F)c1` (mixture of isomers) [Compound 66b, (6SR)-7-[4-bromo-3-(trifluoromethyl)benzoyl]-6-methyl-3-oxo-N-[(2-pyridazin-3-ylphenyl)methyl]-2-[4-[(2R)-3,3,3-trifluoro-2-hydroxy-propoxy]phenyl]-6,8-dihydro-5H-imidazo[1,5-a]pyrazine-1-carboxamide], the pEC50 under setting [1] is 6.30 to 7.30.

In the case of `C[C@H]1Cn2c(c(C(=O)NCc3ccccc3-c3ccccn3)n(-c3ccc(OC[C@](C)(O)C(F)(F)F)cc3)c2=O)CN1C(=O)c1ccc(Br)c(C(F)(F)F)c1` (stereo in doubt) [Compound 90b, rac-(6S)-7-[4-bromo-3-(trifluoromethyl)benzoyl]-6-methyl-3-oxo-N-[[2-(2-pyridyl)phenyl]methyl]-2-[4-[rac-(2S)-3,3,3-trifluoro-2-hydroxy-2-methyl-propoxy]phenyl]-6,8-dihydro-5H-imidazo[1,5-a]pyrazine-1-carboxamide], the pEC50 under setting [1] is 6.30 to 7.30. As for `CC1Cn2c(c(C(=O)NCc3ccccc3-c3cccnn3)n(-c3ccc(OC[C@@H](C)O)cc3)c2=O)CN1C(=O)c1ccc(Br)c(C(F)(F)F)c1` (single isomer, unassigned) [Compound 56b], the pEC50 was 6.30 to 7.30.

As a reminder, the pEC50 is −log10 of the EC50, conventionally taken in molar units.
